Drawing on ChEMBL document CHEMBL1255533, “PKI-179: an orally efficacious dual phosphatidylinositol-3-kinase (PI3K)/mammalian target of rapamycin (mTOR) inhibitor” (Bioorg Med Chem Lett, 2010), this text covers IC50 for 17 compounds.

The target in test [1] is Phosphatidylinositol 4,5-bisphosphate 3-kinase catalytic subunit alpha isoform (Homo sapiens, UniProt P42336). As to the kind of experiment: Inhibition of PI3K-alpha.
A further test has as its system PC-3. The test is described as follows: Antiproliferative activity against human PC3 cells. The format is functional, cell-based.
Another test deals with MDA-MB-361. The test is described as follows: Antiproliferative activity against human MDA-MB-361 cells. In kind it is functional, cell-based.
The target of test [2] is Phosphatidylinositol 4,5-bisphosphate 3-kinase catalytic subunit gamma isoform (Homo sapiens, UniProt P48736). As to the kind of experiment: Inhibition of PI3K-gamma.
Test [3] has as its target Serine/threonine-protein kinase mTOR (Homo sapiens, UniProt P42345). As to the kind of experiment: Inhibition of mTOR.

A value given as a limit tells only on which side of the number the result lay.

Sequence of Phosphatidylinositol 4,5-bisphosphate 3-kinase catalytic subunit alpha isoform (P42336 whole entry, canonical isoform): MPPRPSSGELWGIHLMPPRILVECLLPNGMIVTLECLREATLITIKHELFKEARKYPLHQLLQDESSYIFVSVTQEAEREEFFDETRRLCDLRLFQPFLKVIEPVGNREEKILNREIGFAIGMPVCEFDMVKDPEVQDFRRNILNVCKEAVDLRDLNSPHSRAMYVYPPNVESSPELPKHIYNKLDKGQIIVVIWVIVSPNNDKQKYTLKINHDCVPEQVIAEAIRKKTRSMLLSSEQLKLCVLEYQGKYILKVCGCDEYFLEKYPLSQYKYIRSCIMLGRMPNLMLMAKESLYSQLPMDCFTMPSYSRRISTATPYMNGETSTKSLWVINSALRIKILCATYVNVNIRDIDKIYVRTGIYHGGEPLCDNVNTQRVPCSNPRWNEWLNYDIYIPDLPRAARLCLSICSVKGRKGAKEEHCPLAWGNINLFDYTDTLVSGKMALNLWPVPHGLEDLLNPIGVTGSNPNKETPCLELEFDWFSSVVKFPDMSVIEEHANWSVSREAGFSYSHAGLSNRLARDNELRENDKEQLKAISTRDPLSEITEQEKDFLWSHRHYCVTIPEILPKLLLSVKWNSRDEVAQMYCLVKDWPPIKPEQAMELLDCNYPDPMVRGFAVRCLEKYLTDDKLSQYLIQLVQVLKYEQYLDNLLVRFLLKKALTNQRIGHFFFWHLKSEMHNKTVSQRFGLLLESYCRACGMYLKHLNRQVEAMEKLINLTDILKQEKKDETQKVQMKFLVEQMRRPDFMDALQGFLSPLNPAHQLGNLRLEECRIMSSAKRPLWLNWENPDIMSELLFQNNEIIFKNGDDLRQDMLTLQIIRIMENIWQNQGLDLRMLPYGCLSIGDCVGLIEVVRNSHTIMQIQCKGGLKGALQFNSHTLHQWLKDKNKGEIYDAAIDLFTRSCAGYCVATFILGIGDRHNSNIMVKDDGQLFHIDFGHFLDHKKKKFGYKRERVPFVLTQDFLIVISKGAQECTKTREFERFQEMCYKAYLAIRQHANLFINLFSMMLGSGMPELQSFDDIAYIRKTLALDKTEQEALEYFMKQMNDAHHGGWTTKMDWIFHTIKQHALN
Sequence of Phosphatidylinositol 4,5-bisphosphate 3-kinase catalytic subunit gamma isoform (P48736 whole entry, canonical isoform): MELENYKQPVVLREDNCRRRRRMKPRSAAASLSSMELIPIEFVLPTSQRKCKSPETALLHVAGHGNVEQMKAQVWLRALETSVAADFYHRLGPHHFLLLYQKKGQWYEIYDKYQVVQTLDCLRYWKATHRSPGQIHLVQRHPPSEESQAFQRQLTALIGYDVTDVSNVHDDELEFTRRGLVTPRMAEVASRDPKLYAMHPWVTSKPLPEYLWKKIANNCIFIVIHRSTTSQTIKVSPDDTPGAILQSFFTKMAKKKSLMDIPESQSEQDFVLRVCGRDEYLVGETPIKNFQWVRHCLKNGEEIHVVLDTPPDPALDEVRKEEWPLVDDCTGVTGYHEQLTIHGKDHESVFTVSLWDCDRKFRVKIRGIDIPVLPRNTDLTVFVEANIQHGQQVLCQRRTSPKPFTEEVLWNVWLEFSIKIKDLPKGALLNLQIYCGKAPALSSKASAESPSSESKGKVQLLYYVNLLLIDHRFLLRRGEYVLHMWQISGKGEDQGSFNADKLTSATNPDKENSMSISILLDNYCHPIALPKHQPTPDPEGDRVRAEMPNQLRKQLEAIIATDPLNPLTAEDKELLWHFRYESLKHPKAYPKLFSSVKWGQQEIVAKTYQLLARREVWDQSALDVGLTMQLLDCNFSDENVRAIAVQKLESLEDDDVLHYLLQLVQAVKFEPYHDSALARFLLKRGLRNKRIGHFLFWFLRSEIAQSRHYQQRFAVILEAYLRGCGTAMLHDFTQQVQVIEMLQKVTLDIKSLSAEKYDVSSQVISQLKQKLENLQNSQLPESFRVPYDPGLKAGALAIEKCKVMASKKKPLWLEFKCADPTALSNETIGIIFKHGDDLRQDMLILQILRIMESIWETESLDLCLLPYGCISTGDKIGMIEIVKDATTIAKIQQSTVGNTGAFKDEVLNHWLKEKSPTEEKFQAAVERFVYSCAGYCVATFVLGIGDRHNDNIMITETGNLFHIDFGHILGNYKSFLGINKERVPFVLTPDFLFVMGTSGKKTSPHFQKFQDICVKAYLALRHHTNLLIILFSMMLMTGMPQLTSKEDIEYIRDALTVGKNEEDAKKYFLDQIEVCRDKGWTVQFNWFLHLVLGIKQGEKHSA

Regarding `O=C(Nc1ccc(-c2nc(N3CCOCC3)nc(N3C4CCC3COC4)n2)cc1)Nc1ccnnc1`, the IC50 (commonly the concentration that gives 50% inhibition) came out at 0.028 µM in test [1], 0.047 µM in the test on PC-3 and 0.036 µM in the test with MDA-MB-361.

As to `O=C(Nc1ccc(-c2nc(N3CCOCC3)nc(N3C4CCC3COC4)n2)cc1)Nc1ccc(-c2cccnc2)nc1`, the IC50 came out at 0.044 µM in test [2]; 0.04 µM in test [1]; 0.045 µM in the test on PC-3; 0.056 µM with MDA-MB-361; 0.00345 µM in test [3].

For the compound `O=C(Nc1ccc(-c2nc(N3CCOCC3)nc(N3C4CCC3COC4)n2)cc1)Nc1cncnc1`, the IC50 in test [2] is 0.24 µM; in test [1], 0.084 µM; in the test with PC-3, 0.138 µM; in the test on MDA-MB-361, 0.11 µM.

Turning to `CN(C)CCOc1ccc(NC(=O)Nc2ccc(-c3nc(N4CCOCC4)nc(N4C5CCC4COC5)n3)cc2)cc1`, the IC50 in test [1] was 0.014 µM; in the test with PC-3, below 0.03 µM; with MDA-MB-361, below 0.03 µM.

Consider `O=C(Nc1ccc(-c2nc(N3CCOCC3)nc(N3C4CCC3COC4)n2)cc1)Nc1ccnc(Cl)c1`, for which the IC50 in test [1] amounted to 0.023 µM; in the test on PC-3, 0.118 µM; in the test on MDA-MB-361 it was 0.093 µM.

For the compound `COc1ccc(NC(=O)Nc2ccc(-c3nc(N4CCOCC4)nc(N4C5CCC4COC5)n3)cc2)cc1OC`, the IC50 was 0.358 µM in test [2]; 0.0135 µM in test [1]; 1.25 µM in the test on PC-3; 0.402 µM in the test on MDA-MB-361; 0.0935 µM in test [3].

On to `O=C(Nc1ccc(-c2nc(N3CCOCC3)nc(N3C4CCC3COC4)n2)cc1)Nc1cccnc1`, for which the results for the IC50 in the test with PC-3 and in the test with MDA-MB-361 were 0.098 µM and 0.073 µM, respectively.

For the compound `O=C(Nc1ccc(CCO)cc1)Nc1ccc(-c2nc(N3CCOCC3)nc(N3C4CCC3COC4)n2)cc1`, the results for the IC50 with PC-3 and in the test with MDA-MB-361 were 0.03 µM and 0.022 µM, respectively.

For the compound `O=C(Nc1ccc(F)cc1)Nc1ccc(-c2nc(N3CCOCC3)nc(N3C4CCC3COC4)n2)cc1`, the IC50 came out at 0.176 µM in the test on PC-3, 0.098 µM in the test with MDA-MB-361 and 0.0019 µM in test [3].

Regarding `CN1CCN(c2ccc(NC(=O)Nc3ccc(-c4nc(N5CCOCC5)nc(N5C6CCC5COC6)n4)cc3)cc2)CC1`, the IC50 in the test on PC-3 worked out at 0.04 µM; in the test on MDA-MB-361, 0.035 µM; in test [3] it was 0.0011 µM.

Regarding `CN1CCN(Cc2ccc(NC(=O)Nc3ccc(-c4nc(N5CCOCC5)nc(N5C6CCC5COC6)n4)cc3)cc2)CC1`, the IC50 with PC-3 worked out at 0.031 µM; with MDA-MB-361, 0.014 µM.

As for `O=C(Nc1ccncc1)Nc1ccc(-c2nc(N3CCOCC3)nc(N3C4COCC3[C@@H](O)C4)n2)cc1` (some centres not stated), the IC50 is 0.033 µM in test [2]; 0.004 µM in test [1]; 0.08 µM in the test with PC-3; 0.032 µM in the test on MDA-MB-361; 0.0008 µM in test [3].

For the compound `CN(C)c1ccc(NC(=O)Nc2ccc(-c3nc(N4CCOCC4)nc(N4C5CCC4COC5)n3)cc2)cc1`, the IC50 in test [2] was 0.717 µM; in test [1], 0.0035 µM; in the test on PC-3, above 1 µM; in the test on MDA-MB-361 it was above 1 µM; in test [3] it was 0.0135 µM.

Consider `O=C(Nc1ccc(CO)cc1)Nc1ccc(-c2nc(N3CCOCC3)nc(N3C4CCC3COC4)n2)cc1`, for which the results for the IC50 in the test on PC-3 and with MDA-MB-361 were 0.028 µM and 0.015 µM, respectively.

As for `N#Cc1ccc(NC(=O)Nc2ccc(-c3nc(N4CCOCC4)nc(N4C5CCC4COC5)n3)cc2)cc1`, the values for the IC50 (in the test on PC-3; with MDA-MB-361; in test [3]) were 3.6 µM, 0.345 µM and 0.0033 µM, respectively.

As to `Cc1ccc(NC(=O)Nc2ccc(-c3nc(N4CCOCC4)nc(N4C5CCC4COC5)n3)cc2)cc1`, the figures for the half-inhibitory concentration (IC50) in the test on PC-3 and with MDA-MB-361 were 0.301 µM and 0.167 µM, respectively.

Take `O=C(Nc1ccccc1)Nc1ccc(-c2nc(N3CCOCC3)nc(N3C4CCC3COC4)n2)cc1`: the half-inhibitory concentration (IC50) in test [2] was 0.051 µM; in test [1] it was 0.018 µM; with PC-3 it was 0.147 µM; in the test on MDA-MB-361 it was 0.104 µM; in test [3] it was 0.002 µM.
